# Values of other authors in article PMC8618441, “From Natural Xanthones to Synthetic C-1 Aminated 3,4-Dioxygenated Xanthones as Optimized Antifouling Agents” (Marine Drugs, 2021).
# Legend:
# Parameters in all cases: method as in PMID 23172582
# Conditions in all cases: in words; cited from earlier work
# [1] = system: Colletotrichum lagenarium
# [2] = system: brine shrimp (Artemia salina)
# Escherichia coli = system: Escherichia coli
# Staphylococcus aureus = system: Staphylococcus aureus
smiles,measurement,setting,value
COc1cc(C(=O)O)cc2oc3cc(C)cc(O)c3c(=O)c12 [yicathin C],antimicrobial activity against Colletotrichum lagenarium,[1],could inhibit
same,brine shrimp (Artemia salina) toxicity,[2],weak
same,antimicrobial activity against Escherichia coli,Escherichia coli,could inhibit
same,antimicrobial activity against Staphylococcus aureus,Staphylococcus aureus,could inhibit
